Source: patent US20150376196A1, “4-SUBSTITUTED PYRROLO- AND PYRAZOLO-DIAZEPINES” (BAYER PHARMA AKTIENGESELLSCHAFT, priority 2013, published 2015)
Where two headings read alike, the source gives them in different places.

Tests used:
BRD4 (BD1) = target: T1, BRD4 (BD1) (Homo sapiens, UniProt O60885); experiment: Binding assay BRD4/acetylated peptide H4 (TR-FRET protein-protein interaction assay)
T1 construct: amino acids 67-152, longer constructs also being possible, preferably amino acids 44-168; made in house; host or cells: E. coli
Description: To assess the BRD4 binding strength of the substances described in this application, the ability thereof to inhibit the interaction between BRD4 (BD1) and acetylated histone H4 in a dose-dependent manner was quantified.
For this purpose, a time-resolved fluorescence resonance energy transfer (TR-FRET) assay was used, which measures the binding between N-terminally His6-tagged BRD4 (BD1) (amino acids 67-152, longer constructs also being possible, preferably amino acids 44-168) and a synthetic acetylated histone H4 (Ac-H4) peptide with sequence GRGK(Ac)GGK(Ac)GLGK(Ac)GGAK(Ac)RHGSGSK-biotin. The recombinant BRD4 protein produced in-house according to Filippakopoulos et al., Nature, 2010, 468:1119-1123 was expressed in E. coli and purified by means of (Ni-NTA) affinity and (Sephadex G-75) size exclusion chromatography. The Ac-H4 peptide can be purchased, for example, from Biosyntan (Berlin, Germany).
In the assay, typically 11 different concentrations of each substance (0.1 nM, 0.33 nM, 1.1 nM, 3.8 nM, 13 nM, 44 nM, 0.15 μM, 0.51 μM, 1.7 μM, 5.9 μM and 20 μM) were analysed as duplicates on the same microtitre plate. For this purpose, 100-fold concentrated solutions in DMSO were prepared by serial dilutions (1:3.4) of a 2 mM stock solution into a clear, 384-well microtitre plate (Greiner Bio-One, Frickenhausen, Germany). From this, 50 nl were transferred into a black test plate (Greiner Bio-One, Frickenhausen, Germany). The test was started by the addition of 2 μl of a 2.5-fold concentrated BRD4 solution (final concentration typically 10 nM in the 5 μl of reaction volume) in aqueous assay buffer [50 mM HEPES pH 7.5, 50 mM sodium chloride (NaCl), 0.25 mM CHAPS and 0.05% serum albumin (BSA)] to the substances in the test plate. This was followed by a 10-minute incubation step at 22° C. for the pre-equilibration of putative complexes between BRD4 and the substances.
The mixture was then incubated in the dark at 22° C. for one hour and then at 4° C. for at least 3 hours and for no longer than overnight. The formation of BRD4/Ac-H4 complexes was determined by the measurement of the resonance energy transfer from the streptavidin-Eu cryptate to the anti-6His-XL665 antibody present in the reaction. For this purpose, the fluorescence emission was measured at 620 nm and 665 nm after excitation at 330-350 nm in a TR-FRET measuring instrument, for example a Rubystar or Pherastar (both from BMG Lab Technologies, Offenburg, Germany) or a Viewlux (Perkin-Elmer). The ratio of the emissions at 665 nm and at 622 nm was taken as an indicator of the amount of BRD4/Ac-H4 complexes formed.
The data (ratios) obtained were normalized, with 0% inhibition corresponding to the mean from the measurements for a set of controls (typically 32 data points) in which all the reagents were present. In these, in place of test substances, 50 nl of DMSO (100%) were used Inhibition of 100% corresponded to the mean from the measurements for a set of controls (typically 32 data points) in which all the reagents except BRD4 were present. The IC50 was determined by regression analysis based on a 4-parameter equation (minimum, maximum, IC50, Hill; Y=max+(min−max)/(1+(X/IC50)^Hill)).

MOLM-13 cells = experiment: Cell proliferation assay (alamarBlue), MOLM-13; format: cell-based; conditions: Homo sapiens, Leukaemia, 96 hours, inhibition of cell proliferation
Description: (§1) In accordance with the invention, the ability of the substances to inhibit cell proliferation was determined Cell viability was determined by means of the alamarBlue® reagent (Invitrogen) in a Victor X3 Multilabel Reader (Perkin Elmer). The excitation wavelength was 530 nm and the emission wavelength […].
The MOLM-13 cells (DSMZ, ACC 554) were sown at a concentration of 4000 cells/well in 100 μl of growth medium (RPMI1640, 10% FCS) on 96-well microtitre plates.
(§2) The MDA-MB-231 cells (DSMZ, ACC 732) were sown at a concentration of 4000 cells/well in 100 μl of growth medium (DMEM/Ham's F12 medium, 10% FCS) on 96-well microtitre plates. After overnight incubation at 37° C., the fluorescence values (CI values) were determined. Then the plates were treated with various substance dilutions (1E-5 M, 3E-6 M, 1E-6 M, 3E-7 M, 1E-7 M, 3E-8 M, 1E-8 M) and incubated at 37° C. for 72 (MV-4-11, LOX-IMVI cells), 96 (MOLM-13, B16F10, […] cells), 120 (MOLP-8, KMS-12-PE cells) or 168 (LAPC-4 cells) hours. Subsequently, the fluorescence values were determined (CO values). For the data analysis, the CI values were subtracted from the CO values and the results were compared between cells which had been treated with various dilutions of the substance or only with buffer solution. The ICso values (substance concentration needed for 50% inhibition of cell proliferation) were calculated therefrom.
(§3) The substances were tested in the cell lines in Table 1, which represent the indications specified by way of example: […]

B16F10 cells = experiment: Cell proliferation assay (alamarBlue), B16F10; format: cell-based; conditions: Mus musculus, B16-F10, Melanoma (BRAF wild-type), 96 hours, inhibition of cell proliferation
Description: as §1
The B16F10 cells (ATCC, CRL-6475) were sown at a concentration of 300-500 cells/well in 100 μl of growth medium (DMEM with phenol red, 10% FCS) on 96-well microtitre plates.
as §2, §3

MOLP-8 cells = experiment: Cell proliferation assay (alamarBlue), MOLP-8; format: cell-based; conditions: Homo sapiens, Multiple myeloma, 120 hours, inhibition of cell proliferation
Description: as §1
The MOLP-8 cells (DSMZ, ACC 569) were sown at a concentration of 4000 cells/well in 100 μl of growth medium (RPMI1640, 20% FCS) on 96-well microtitre plates.
as §2, §3

LAPC-4 cells = experiment: Cell proliferation assay (alamarBlue), LAPC-4; format: cell-based; conditions: Homo sapiens, LAPC4, Prostate, 1 nM methyltrienolone, 168 hours, inhibition of cell proliferation
Description: as §1
The LAPC-4 cells (ATCC, PTA-1441TM) were sown at a concentration of 4000 cells/well in 100 μl of growth medium (RPMI1640, 2 mM L-glutamine, 10% cFCS) on 96-well microtitre plates. One day later, the LAPC-4 cells were treated with 1 nM methyltrienolone and various substance dilutions.
as §2, §3

[1] = BRD4 (BD1) / acetylated histone H4 peptide, TR-FRET, read-out: IC50 (BRD4)

## Cc1c2c(cn1C)-n1c(C)nnc1[C@H](CC(=O)OC(C)(C)C)N=C2c1ccc(Cl)cc1 [Example 3]
BRD4 (BD1); [1]
  IC50: 0.03 µM
MOLM-13 cells
  IC50: 0.21 µM
B16F10 cells
  IC50: 0.19 µM
MOLP-8 cells
  IC50: 0.19 µM
LAPC-4 cells
  IC50: 0.1 µM

## Cc1c2c(cn1C)-n1c(C)nnc1[C@H](CC(=O)N1CC(F)C1)N=C2c1ccc(Cl)cc1 [Example 5, (−)-2-[(4S)-6-(4-Chlorophenyl)-1,7,8-trimethyl-4,8-dihydropyrrolo[3,4f][1,2,4]triazolo [4,3-a][1,4]diazepin-4-yl]-1-(3-fluoroazetidin-1-yl)ethan-1-one]
BRD4 (BD1); [1]
  IC50: 0.07 µM
MOLM-13 cells
  IC50: 0.53 µM
B16F10 cells
  IC50: 0.58 µM
MOLP-8 cells
  IC50: 0.37 µM
LAPC-4 cells
  IC50: 0.37 µM

## COC(=O)C[C@@H]1N=C(c2ccc(Cl)cc2)c2nn(C)cc2-n2c(C)nnc21 [Example 6, 2-[(4S)-6-(4-Chlorophenyl)-1,8-dimethyl-4,8-dihydropyrazolo[3,4-f][1,2,4]triazolo[4,3-a][1,4]diazepin-4-yl]acetic acid methyl ester]
BRD4 (BD1)
  IC50: 0.14 µM
MOLM-13 cells
  IC50: 0.45 µM
B16F10 cells
  IC50: 0.55 µM
MOLP-8 cells
  IC50: 0.45 µM
LAPC-4 cells
  IC50: 0.25 µM

## COC(=O)C[C@@H]1N=C(c2ccc(Cl)cc2)c2c(cnn2C)-n2c(C)nnc21 [Example 7, 2-[(4S)-6-(4-Chlorophenyl)-1,7-dimethyl-4,7-dihydropyrazolo[3,4-f][1,2,4]triazolo[4,3-a][1,4]diazepin-4-yl]acetic acid methyl ester]
BRD4 (BD1)
  IC50: 0.23 µM
MOLM-13 cells
  IC50: 0.74 µM
MOLP-8 cells
  IC50: 0.45 µM

## Cc1c2c(cn1C)-n1c(C)nnc1[C@H](CC(=O)N(C)CC1(C)COC1)N=C2c1ccc(Cl)cc1 [Example 11, (−)-2-[(4S)-6-(4-Chlorophenyl)-1,7,8-trimethyl-4,8-dihydropyrrolo[3,4f][1,2,4]triazolo[4,3-a][1,4]diazepin-4-yl]-N-methyl-N-[(3-methyloxetan-3-yl)methyl]acetamide]
BRD4 (BD1); [1]
  IC50: 0.22 µM
MOLM-13 cells
  IC50: 1.99 µM
B16F10 cells
  IC50: 1.4 µM
LAPC-4 cells
  IC50: 0.81 µM

## Cc1c2c(cn1C)-n1c(C)nnc1[C@H](CC(=O)N1CCC(=O)C1)N=C2c1ccc(Cl)cc1 [Example 12]
BRD4 (BD1); [1]
  IC50: 0.11 µM
MOLM-13 cells
  IC50: 0.48 µM
B16F10 cells
  IC50: 0.6 µM
LAPC-4 cells
  IC50: 0.22 µM

## Cc1nnc2n1-c1cn(C)nc1C(c1ccc(Cl)cc1)=NC2CC(=O)N1CCS(=O)(=O)CC1 (centres unmarked) [Example 14, 2-[6-(4-Chlorophenyl)-1,8-dimethyl-4,8-dihydropyrazolo[3,4-f][1,2,4]triazolo[4,3-a][1,4]diazepin-4-yl]-1-(1,1-dioxidothiomorpholin-4-yl)ethanone]
BRD4 (BD1); [1]
  IC50: 0.64 µM
MOLM-13 cells
  IC50: 3.46 µM
MOLP-8 cells
  IC50: 4 µM

## Cc1noc(C[C@@H]2N=C(c3ccc(Cl)cc3)c3c(cn(C)c3C)-n3c(C)nnc32)n1 [Example 26, (4S)-6-(4-Chlorophenyl)-1,7,8-trimethyl-4-[(3-methyl-1,2,4-oxadiazol-5-yl)methyl]-4,8-dihydropyrrolo[3,4-f][1,2,4]triazolo[4,3-a][1,4]diazepine]
BRD4 (BD1); [1]
  IC50: 0.02 µM
MOLM-13 cells
  IC50: 0.08 µM
MOLP-8 cells
  IC50: 0.05 µM

## CCc1noc(C[C@@H]2N=C(c3ccc(Cl)cc3)c3c(cn(C)c3C)-n3c(C)nnc32)n1 [Example 28, (4S)-6-(4-Chlorophenyl)-1,7,8-trimethyl-4-[(3-ethyl-1,2,4-oxadiazol-5-yl)methyl]-4,8-dihydropyrrolo[3,4-f][1,2,4]triazolo[4,3-a][1,4]diazepine]
BRD4 (BD1); [1]
  IC50: 0.03 µM
MOLM-13 cells
  IC50: 0.07 µM
MOLP-8 cells
  IC50: 0.04 µM

## Cc1c2c(cn1C)-n1c(C)nnc1[C@H](Cc1nc(C(C)C)no1)N=C2c1ccc(Cl)cc1 [Example 30, (4S)-6-(4-Chlorophenyl)-1,7,8-trimethyl-4-{[3-(propan-2-yl)-1,2,4-oxadiazol-5-yl]methyl}-4,8-dihydropyrrolo[3,4-f][1,2,4]triazolo[4,3-a][1,4]diazepine]
BRD4 (BD1); [1]
  IC50: 0.03 µM
MOLM-13 cells
  IC50: 0.07 µM
MOLP-8 cells
  IC50: 0.05 µM
